What all share (test): relative viability (nuclei count vs DMSO), 5 days (fraction); higher = more cells survive
Compound in the assay “Venetoclax + Navitoclax”: CC1(C)CCC(CN2CCN(c3ccc(C(=O)NS(=O)(=O)c4ccc(NCC5CCOCC5)c([N+](=O)[O-])c4)c(Oc4cnc5[nH]ccc5c4)c3)CC2)=C(c2ccc(Cl)cc2)C1 [Venetoclax] + CC1(C)CCC(c2ccc(Cl)cc2)=C(CN2CCN(c3ccc(C(=O)NS(=O)(=O)c4ccc(N[C@H](CCN5CCOCC5)CSc5ccccc5)c(S(=O)(=O)C(F)(F)F)c4)cc3)CC2)C1 [Navitoclax] (partner 0.5 µM)
Put shortly: (§1)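 Nuclei were stained with Hoechst during a one-step fixation (final 0.05% Triton X-100, 1% formaldehyde, 1 ug/ml Hoechst) carried out 5 days after dosing, then counted on 4× images. The cells, lung cancer lines in 1536-well plates, had been dosed by pin tool the day after seeding with one drug alone or a fixed anchor-drug dose plus five library-drug doses (not always all listed) in √10 steps. Relative viability is the nuclei count in treated wells divided by that in vehicle wells, and each value is the median of duplicate plates.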

Compound in the assay “Venetoclax + Pictilisib”: CC1(C)CCC(CN2CCN(c3ccc(C(=O)NS(=O)(=O)c4ccc(NCC5CCOCC5)c([N+](=O)[O-])c4)c(Oc4cnc5[nH]ccc5c4)c3)CC2)=C(c2ccc(Cl)cc2)C1 [Venetoclax] + CS(=O)(=O)N1CCN(Cc2cc3nc(-c4cccc5[nH]ncc45)nc(N4CCOCC4)c3s2)CC1 [Pictilisib] (partner 1 µM)
Put shortly:
as §1

Compound in the assay “Venetoclax + Olaparib”: CC1(C)CCC(CN2CCN(c3ccc(C(=O)NS(=O)(=O)c4ccc(NCC5CCOCC5)c([N+](=O)[O-])c4)c(Oc4cnc5[nH]ccc5c4)c3)CC2)=C(c2ccc(Cl)cc2)C1 [Venetoclax] + O=C(c1cc(Cc2n[nH]c(=O)c3ccccc23)ccc1F)N1CCN(C(=O)C2CC2)CC1 [Olaparib] (partner 8 µM)
Put shortly: as §1

Compound in the assay “Selumetinib + Dasatinib”: Cn1cnc2c(F)c(Nc3ccc(Br)cc3Cl)c(C(=O)NOCCO)cc21 [Selumetinib] + Cc1nc(Nc2ncc(C(=O)Nc3c(C)cccc3Cl)s2)cc(N2CCN(CCO)CC2)n1 [Dasatinib] (partner 0.075 µM)
Put shortly: as §1

As for UMC-11, the relative viability is 0.307 in the assay with Venetoclax + Navitoclax (first compound 0.01 µM); 0.31 with Venetoclax + Navitoclax (first compound 0.03162 µM); 0.255 with Venetoclax + Navitoclax (first compound 0.1 µM); 0.284 with Venetoclax + Navitoclax (first compound 0.3162 µM); 0.249 with Venetoclax + Navitoclax (first compound 1 µM); 0.817 with Venetoclax + Pictilisib (first compound 0.01 µM). Also, the relative viability came to 0.985 with Venetoclax + Pictilisib (first compound 0.03162 µM); 0.747 in the assay with Venetoclax + Pictilisib (first compound 0.1 µM); 0.741 with Venetoclax + Pictilisib (first compound 0.3162 µM); 0.72 with Venetoclax + Pictilisib (first compound 1 µM); 0.401 with Venetoclax + Olaparib (first compound 0.01 µM); 0.322 with Venetoclax + Olaparib (first compound 0.03162 µM). Besides, the relative viability with Venetoclax + Olaparib (first compound 0.1 µM) amounted to 0.303; in the assay with Venetoclax + Olaparib (first compound 0.3162 µM), 0.379; with Venetoclax + Olaparib (first compound 1 µM), 0.886; with Selumetinib + Dasatinib (first compound 0.02 µM), 0.465; with Selumetinib + Dasatinib (first compound 0.06325 µM), 0.486; with Selumetinib + Dasatinib (first compound 0.2 µM), 0.474. In addition, the relative viability with Selumetinib + Dasatinib (first compound 0.6325 µM) is 0.547.
